According to patent US20250144187A1, “COMBINATION OF HYDROLASES AND ANTI-MICROORGANISM DRUGS AND USES THEREOF” (CENTRE FOR EYE AND VISION RESEARCH LIMITED, priority 2023, published 2025):

System: MRSA
Experiment: HADA-based synthesis of nascent cell wall
Parameters: species or system Staphylococcus aureus
Details: cefdinir alone or combination with lysozyme, 2 hours
Procedure: 8) Synthesis and digestion of cell wait. According to the reported method [Kuru E et al., ACS Chem Biol 14, 2745-2756 (2019)], over-night cultured MRSA was inoculated into LB medium and cultured at 37° C. with shaking at 250 rpm until when its OD600 reached 0.6. Then, these mid-log-phase MRSA was treated with cefdinir (0.5 μg/ml), lysozyme (0.5 mg/ml) alone or their combination. Those treated with mezlocillin (1.0 μg/ml) and without any treatment served as antibiotic-control and untreated group, respectively. Meanwhile, MRSA suspension in control group was further divided into two groups. i.e., control group and no drug group, Next, 10 μM HCC-Amino-D-alanine (HADA) was added into all samples except those in no drug group, in which HADA was replaced by PBS. After 2- or 4-hour incubation, all bacteria were collected by centrifugation at 3220 g for 10 minutes and then washed by cold PBS for 3 times to remove redundant HADA.

SMILES: C=CC1=C(C(=O)O)N2C(=O)[C@@H](NC(=O)/C(=N\O)c3csc(N)n3)[C@H]2SC1 [cefdinir, Cefdinir]
- reduction in HADA signal intensity from nascent cell wall: ~40%
